Assay results taken from patent US20060275250A1, “Reactive polymers and copolymers, method of their preparation and their use” (priority 2003, published 2006).
≈ marks a conversion by molar mass, not a printed value.

Experiments:
[1] = system: ConA-stimulated mouse T-splenocytes; assay: In vitro cytotoxicity, [3H]thymidine incorporation, ConA-stimulated mouse T-splenocytes; type: cell-based; conditions: Splenocyte, 50% decrease in proliferation
Description: (§1) In vitro cytotoxicity tests were performed by a standard method on ConA-stimulated and nonstimulated mouse T-splenocytes and on a tumour line of mouse T-cell lymphom EL-4. Cytotoxicity was followed by a change of incorporation of [^3H]thymidine into cells incubated in a medium containing the tested sample in various concentrations. The cytotoxicity was expressed by the IC50 factor (the substance concentration at which a 50% decrease in proliferation of tested cells is observed).

[2] = system: mouse T-cell lymphom EL-4; assay: In vitro cytotoxicity, [3H]thymidine incorporation, EL-4 tumour line; type: cell-based; conditions: mouse T-cell lymphoma EL-4 line, 50% decrease in proliferation
Description: as §1

[3] = clinical testing; cumulative dose reached 1680 mg/m^2; cited from earlier work
[4] = system: human melanoma; assay: Treatment of human melanoma in nu-nu mice; type: in vivo; conditions: compared with the conjugate from ONp or Su reactive polymer, FIG. 3
Description: The properties of the conjugate were compared with those of the conjugate prepared from the classic ONp reactive polymer. […] The synthesis using the reactive polymer according to the invention proceeded faster, a polymer with a smaller content of reactive groups (2 mol %) could be used for obtaining the same product, and in the resulting conjugate no unmodified protein or unreacted polymer was present (the conversion of the reaction of reactive groups was higher).
A star-like poly(HMPA)—RNase A conjugate was prepared from a semitelechelic polymer prepared according to Example 3 by the same procedure as in the synthesis starting from poly(HPMA) with succinimidyl end group. The star conjugate was purified from low-molecular-weight materials by preparative gel chromatography (Sephacryl S300, column 26×600 mm, flow-rate 12.5 ml/h, distilled water). After concentration using an ultrafiltration membrane (PM 30), the product was lyophilized. Comparing the conjugate syntheses using polymers with OSu and TT reactive groups, the latter led to higher reaction yields and much smaller amounts of unreacted (hydrolyzed) polymer in the reaction mixture.

COc1cccc2c1C(=O)c1c(O)c3c(c(O)c1C2=O)C[C@@](O)(C(=O)CO)C[C@@H]3O[C@H]1C[C@H](N)[C@H](O)[C@H](C)O1 [Dox, doxorubicin]
IC50 [1]: 0.07 µg/mL (≈ 0.129 µM) | IC50 [2]: 0.03 µg/mL (≈ 0.0552 µM)

N-(2-hydroxypropyl)methacrylamide copolymer doxorubicin [PK1]
changes in cardial functions [3]: no serious changes in cardial functions were observed

B1: star-like poly(HMPA)—RNase A conjugate (conjugate, UniProt P61823 27-150, looked up)
Ribonuclease pancreatic: KETAAAKFERQHMDSSTSAASSSNYCNQMMKSRNLTKDRCKPVNTFVHESLADVQAVCSQKNVACKNGQTNCYQSYSTMSITDCRETGSSKYPNCAYKTTQANKHIIVACEGNPYVPVHFDASV
modifications: star-like poly(HPMA) polymer conjugate
biological properties / in vivo activity in the treatment of human melanoma [4]: active under in vivo conditions equally well as the conjugate prepared from reactive Su ester
